This is an account of results in a melting point compilation (Tetko et al.).

One may read the melting point as the temperature of the solid-liquid transition. With `Fc1cccc(NC2CCOCC2)c1`, the melting point lay within 70 to 72 °C.

Regarding `COc1cccc(-c2nnc(N)o2)c1OC`, the melting point is 185 to 187 °C. Molecule `O=C(O)COc1ccc(F)cc1Cl` yielded a melting point of 140 to 142 °C.

`NC(CC(=O)O)c1cccc(Cl)c1` (stereo not given) showed a melting point of 227 to 229 °C. Turning to `O=C(O)C1CCN(c2ccc(C(F)(F)F)cc2[N+](=O)[O-])CC1`, the melting point was 141 to 143 °C. The result for `N#Cc1ccc(-c2ccccc2)[nH]c1=O` reads 297 to 299 °C; that for `CC(C)Oc1ccc(CCC(=O)O)cc1`, 74 to 76 °C. `N#Cc1cccc(CS(=O)(=O)NCC(=O)O)c1` showed a melting point of 158 to 160 °C. `Nc1cc(C(=O)N2CCCCC2)ccc1Cl` displayed a melting point of 135 to 137 °C. With `C=CS(=O)(=O)Oc1ccccc1`, the melting point lay in the range of 39 to 42 °C.

In turn, `Cc1ccc(S(=O)(=O)N(C)C)cc1NC(=S)NN` came in with a melting point of 191 to 193 °C. To `c1nc(N2CCCC2)c2nc[nH]c2n1` belongs 302 to 304 °C. `CCOc1ccccc1N1CC(C(=O)O)CC1=O` (stereo not given) displayed a melting point of 104 to 108 °C. Molecule `CCC(=O)N(c1nnc(S)s1)C1CC1` gave a melting point of 195 to 197 °C. The result for `COc1ccc(Cn2[nH]ccc2=N)c(OC)c1` reads 76 to 78 °C; that for `CC(=O)c1ccc(CC(=O)O)cc1`, 109 to 111 °C; that for `CC(=O)c1cc(F)ccc1-n1ccnc1`, 182 to 184 °C.

`CC(C)Cc1cc(N)n(C)n1` had a melting point of 90 to 92 °C. The molecule `COc1ccc2c(c1)CCCC(=O)N2` yielded a melting point of 142 to 144 °C.

In the case of `Cc1ccc(-c2nnc(O)c3ccccc23)cc1`, the melting point was in the range of 250 to 255 °C. To `Nc1ccc(Oc2ccc(C(F)(F)F)cc2)nc1` belongs 116 to 118 °C; to `CCCOc1ccc2ccccc2c1C=O`, 65 to 68 °C; to `O=[N+]([O-])c1[nH]cnc1-c1ccc(F)cc1`, 290 to 292 °C. As for `CCOc1ccccc1-c1nnc(S)n1N`, the melting point lay in the range of 153 to 155 °C. `Cc1ccc(NS(=O)(=O)c2ccc(N)cc2)cc1C` registered a melting point of 150 to 152 °C. `O=C(c1ccc(Cl)nc1)N1CCc2ccccc21` yielded a melting point of 132 to 134 °C. `Cc1nc(N)cc(C2CC2)n1` displayed a melting point of 159 to 161 °C. Turning to `Fc1c(Cl)ccc2c(Cl)ccnc12`, the melting point was 129 to 131 °C.

`COc1cc(C(C)=O)ccc1SCC(=O)O` showed a melting point of 134 to 136 °C. To `Nc1ccc(NC(=O)c2ccco2)cc1C(F)(F)F` belongs 120 to 122 °C; to `O=C(O)c1cn(-c2ccccc2)nc1-c1ccc(Cl)s1`, 209 to 211 °C.

Take `NS(=O)(=O)c1cccc2c1N=S=N2`: the melting point was 128 to 130 °C. To `CCN(Cc1ccccc1N)C(C)=O` belongs 79 to 81 °C.

The molecule `O=C(O)c1ccc(COc2ccccc2Br)cc1` registered a melting point of 185 to 187 °C. For the molecule `CC(N)c1ccc(S(C)(=O)=O)c(F)c1` (stereo not given), the melting point is 60 to 62 °C. The result for `CS(=O)(=O)c1ccc(-c2csc(N)n2)cc1` reads 260 to 262 °C; that for `COC(=O)c1ccc(F)cc1S`, 41 to 43 °C. `C=CCc1cc(C=O)cc(OC)c1O`: the melting point was 80 to 82 °C.

In turn, `CC(=O)c1sc(N)nc1-c1ccccc1` displayed a melting point of 145 to 147 °C.

On to `Cc1cc(Br)cc(C)c1S(=O)(=O)Cl`, for which the melting point was 49 to 51 °C. The result for `O=C(O)c1ccc(S(=O)(=O)N2CCc3ccccc3C2)cc1` reads 272 to 274 °C; that for `Cc1csc(NCC(F)(F)F)n1`, 142 to 144 °C; that for `OCc1ccc(OCc2cccs2)cc1`, 68 to 70 °C. Turning to `NC(=O)Cc1ccccc1Cl`, the melting point lay within 178 to 180 °C. `O=C(CCl)Nc1ccc2c(c1)OCCCO2` showed a melting point of 108 to 110 °C. Take `O=C(CBr)CS(=O)(=O)c1ccccc1`: the melting point is 96 to 98 °C. In turn, `Nc1c(I)cc(I)cc1I` registered a melting point of 187 to 189 °C. As to `Cc1ccc(S(=O)(=O)Nc2ccccc2C(=O)O)cc1`, the melting point was 231 to 233 °C. As for `COc1ccccc1Nc1nc2sc(C(=O)O)cc2s1`, the melting point is 235 to 237 °C.

`CS(=O)(=O)CCC(=O)O`: the melting point fell in the range of 100 to 102 °C.

In turn, `O=Cc1csc(COc2ccccc2)n1` came in with a melting point of 76 to 78 °C. Take `O=C1OCCN1c1ccc(S(=O)(=O)Cl)cc1`: the melting point was 168 to 170 °C. `Nc1cccc(S(=O)(=O)Nc2ccccc2Cl)c1` gave a melting point of 110 to 112 °C. To `CC(C)(C)OC(=O)NC1(C(=O)O)CCOC(C)(C)C1` (stereo not given) belongs 176 to 178 °C; to `CC(C)c1ccc(C(=O)O)c(C(C)C)c1`, 99 to 101 °C. To `Nc1ccc(NC(=O)c2ccccc2I)cc1` belongs 143 to 145 °C. The molecule `CCC1=C(C(=O)O)Cc2ccccc2O1` registered a melting point of 223 to 225 °C. With `COC(=O)c1ccc(N)c([N+](=O)[O-])c1`, the melting point lay within 201 to 203 °C.

As for `O=C(O)CCCNS(=O)(=O)c1cccc(C(F)(F)F)c1`, the melting point was in the range of 152 to 155 °C. For the molecule `CC1(C)CC(=O)CC(C)(C)N1C(=O)CCl`, the melting point lay within 67 to 69 °C. Consider `COC(=O)c1cc([N+](=O)[O-])ccc1S(=O)(=O)Cl`, for which the melting point is 109 to 111 °C. As for `O=C1COc2cc(S(=O)(=O)Cl)c(Cl)cc2N1`, the melting point is 248 to 250 °C. Turning to `NCc1cccc(NS(=O)(=O)c2ccc(Cl)cc2)c1`, the melting point was in the range of 186 to 188 °C.

With `Cc1cccc(C(=O)NO)c1O`, the melting point was in the range of 139 to 141 °C.

Regarding `O=C(O)C1(c2cccc(C(F)(F)F)c2)CCCCC1`, the melting point was in the range of 144 to 146 °C. As to `Cc1nnnn1-c1ccc(Br)cc1`, the melting point was in the range of 116 to 118 °C. To `Nc1ccc(NC(=O)C2CCCO2)cc1C(F)(F)F` (stereo not given) belongs 64 to 66 °C; to `N#CCN1CCC(O)CC1`, 76 to 78 °C. `COC(=O)c1ccc(S(=O)(=O)Cl)cn1` showed a melting point of 119 to 121 °C. `NCCNS(=O)(=O)Cc1ccon1` returned a melting point of 89 to 91 °C. In turn, `NC(=O)Nc1ccc(C(=O)O)cc1` showed a melting point of 296 to 298 °C. For the molecule `O=S(=O)(Cl)c1ccc2nc(Cl)ccc2c1`, the melting point was 138 to 140 °C. The molecule `Cc1cccc([N+](=O)[O-])c1C(N)=O` yielded a melting point of 158 to 160 °C. With `COc1cc(OC)c([N+](=O)[O-])cc1F`, the melting point lay in the range of 152 to 154 °C. For `O=C(O)Cc1ccc(NC(=O)c2cccc(Br)c2)cc1`, the melting point lay in the range of 246 to 248 °C. The result for `FC(F)(F)c1cc(Cl)nc(-c2ccncc2)n1` reads 158 to 160 °C; that for `Nc1cccc(-c2ccc(=O)[nH]n2)c1`, 206 to 208 °C; that for `N#CCN1CCN(c2ncccn2)CC1`, 99 to 101 °C. To `c1ccc(NC2=NCCCS2)cc1` belongs 124 to 126 °C; to `O=C(O)Cc1cn(-c2ccccc2)nc1-c1ccc(Br)cc1`, 135 to 137 °C; to `CCCCn1nnnc1CCl`, under 17 °C.

`COc1ccc(S(N)(=O)=O)cc1OC` showed a melting point of 135 to 137 °C. For the molecule `Nc1nc(-c2ccccc2Cl)ns1`, the melting point is 119 to 121 °C.

Molecule `CC1=NN(C2CCS(=O)(=O)C2)C(=O)C1` (stereo not given) yielded a melting point of 185 to 187 °C. Consider `N#Cc1cc(F)cc(CO)c1`, for which the melting point lay in the range of 59 to 61 °C.
